According to patent publication US20190345087A1, “BIO-STABLE C[…] AND METHODS FOR ENHANCING THEIR PHYSIOLOGICAL CONCENTRATION” (Teewinot Technologies Limited, priority 2016, published 2019):
Values after ≈ are worked out from the molar mass of the structure shown.

Assays:
[1] = Chemical Stability Assay - Teorell-Stenhagen Buffer; assay type: physicochemical; conditions: for Teorell-Stenhagen Buffer pH 3.5 t1/2 / Teorell-Stenhagen Buffer pH 4.5 t1/2 / Teorell-Stenhagen Buffer pH 5.5 t1/2 / Teorell-Stenhagen Buffer pH 6.5 t1/2 / Teorell-Stenhagen Buffer pH 7.5 t1/2 / Teorell-Stenhagen Buffer pH 8.5 t1/2: 10 μM, 0.5% DMSO, 20° C.
Method: (§1) CBD methyl ether and CBD difluoromethyl ether were synthesized using a synthetic protocol described above and the identities of the desired ether products were confirmed by nuclear magnetic resonance spectroscopy as well as HPLC-MS. CBD methyl and/or CBD difluoromethyl ethers were incubated in individual eppendorf tubes in the following mediums: (a) simulated gastric fluid (SGF) with and without pepsin; (b) microsomal extract; (c) S9 fraction (hepatic); (d) Plasma; (e) Teorell-Stenhagen Buffer at pH 3.5, 4.5, 5.5, 6.5, 7.5, and 8.5; and (f) simulated intestinal fluid (SIF) with and without pancreatin. Each incubation mixture contained up to 0.5% of an organic solvent. DMSO is the organic solvent when SGF and Teorell-Stenhagen Buffer was used and acetonitrile is the organic solvent for incubation mixtures in microsomal extract, S9 fraction, and plasma. The concentration of CBD methyl and/or CBD difluoromethyl ether is 10 μM for stability studies in SGF and Teorell-Stenhagen Buffer. However, the concentration of CBD methyl and/or CBD difluoromethyl ether is 1 μM for stability studies in microsomal extract, S9 fraction, and plasma.
[…] Aliquots were taken at fixed intervals of time, typically at 0, 5, 10, 15, 30, and 45 minutes, or at fixed intervals of 1 h, 1.5 h, 2 h, 4 h, 6 h, 8 h, 24 h, and 48 hours. At each interval of time, two aliquots of each sample were collected. Each aliquot was extracted with ethyl acetate. The ethyl acetate layer was evaporated using a stream of nitrogen gas and the resulting residue was dissolved in 1:1 mixture of 0.1% aqueous HOAc and acetonitrile and analyzed by reverse-phase HPLC-MS.

[2] = S9 Intrinsic Clearance Assay; assay type: in vitro ADME, Human
Method: as §1
(§2) Stability studies were performed by incubating CBD methyl ether and/or CBD difluoromethyl ether at 37 ° C. in the desired medium. Aliquots were taken at fixed intervals of time, typically at 0, 5, 10, 15, 30, and 45 minutes, or at fixed intervals of 1 h, 1.5 h, 2 h, 4 h, 6 h, 8 h, 24 h, and 48 hours. At each interval of time, two aliquots of each sample were collected. Each aliquot was extracted with ethyl acetate. The ethyl acetate layer was evaporated using a stream of nitrogen gas and the resulting residue was dissolved in 1:1 mixture of 0.1% aqueous HOAc and acetonitrile and analyzed by reverse-phase HPLC-MS.
The stability of CBD methyl ether and CBD difluoromethyl ether in the hepatic S9 fraction is illustrated in Table 3. Both the methyl and difluoromethyl ethers were reasonably stable in S9 fraction with half-lives for de-etherification being about 5 hours for the methyl ether and about 3 hours for the difluoromethyl ether.
Intrinsic clearance (CLint) is clearance of drug by the livers if the drug is not bound to serum proteins or dependent on blood flow for delivery to the livers. Intrinsic clearance (CLint) is influenced by the affinity of the drug for its metabolizing liver enzyme and the number of enzymes present. CLint is subject to saturation and governed by Michaelis-menten (non-linear) elimination kinetics. Intrinsic clearance can be constant at low concentration, but progressively decreases as enzyme sites become saturated. Drugs with a strong affinity for their metabolizing enzymes or for which there are a large number of enzymes would be more efficiently extracted by the liver and thus, have a high extraction ratio (EH).
The hepatic extraction ratio EH is a good measure of expected first-pass metabolic clearance from liver (typical first pass after oral administration). The hepatic extraction ratio (Eh) is represented as follows:
Hepatic clearance (CLH) is the volume of blood that is cleared of drug per unit time by the liver, and QH is the rate of blood flow to the liver.
The hepatic extraction ratio EH is particularly useful for separating compounds into low/medium/high metabolic stability categories. Unlike in vitro intrinsic microsomal clearance (CLint), EH is species-nonspecific, because in its calculation species differences like liver weight, body weight, liver blood flow, etc. are normalized out, so EH values can be directly compared across species.

[3] = Microsomal Intrinsic Clearance Assay; assay type: in vitro ADME, Human
Method: as §1, §2
In vitro intrinsic microsomal clearance studies were performed to understand the metabolic fate of CBD ethers, as well as to identify metabolites produced by the degradation of the inventive CBD ethers.
The liver is the most important site of drug metabolism in the body. Approximately 60% of marketed compounds are cleared by hepatic CYP-mediated metabolism. See Drug Aletab. Dispos., 27(11) (1999) 1350. Liver microsomes are a subcellular fraction of hepatocytes, and they contain membrane bound drug metabolizing enzymes, Microsomes can be used to determine the in vitro intrinsic clearance of a compound. The use of species-specific microsomes can be used to enable an understanding of interspecies differences in drug metabolism.

Plasma Stability Assay = assay type: in vitro ADME; conditions: 1 μM, 37 ° C.
Method: as §1, with “The concentration of CBD methyl and/or CBD difluoromethyl ether is 10 μM for stability studies in SGF and Teorell-Stenhagen Buffer. However, the concentration of CBD methyl and/or CBD difluoromethyl ether is 1 μM for stability studies in microsomal extract, S9 fraction, and plasma.” left out
Stability studies were performed by incubating CBD methyl ether and/or CBD difluoromethyl ether at 37 ° C. in the desired medium. […] The ethyl acetate layer was evaporated using a stream of nitrogen gas and the resulting residue was dissolved in 1:1 mixture of 0.1% aqueous HOAc and acetonitrile and analyzed by reverse-phase HPLC-MS.
The methyl and difluoromethyl ethers of CBD were stable to degradation in plasma. The half-life of degradation as measured by LC-MS for both ethers was greater than 400 minutes.

Solubility Assay - PBS = assay type: physicochemical; conditions: for solubility in phosphate buffered saline / Solubility (μM) in PBS 7.4: PBS pH 7.4; for Solubility (μM) in PBS 7.4 / Solubility (μM) in T-S 7.5: λ 280 nm; for Solubility (μM) in T-S 7.5: Teorell-Stenhagen buffer pH 7.5
[4] = Stability in simulated gastric fluid (SGF) with and without pepsin and simulated intestinal fluid (SIF) with and without pancreatin; conditions: for SGF t1/2: SGF with pepsin; for SGF t1/2 / SGF No Pepsin t1/2: pH 1.2; for SGF t1/2 / SGF No Pepsin t1/2 / SIF t1/2 / SIF No Pancreatin t1/2: 10 μM, 0.5% DMSO, 37° C.; for SGF No Pepsin t1/2: SGF without pepsin; for SIF t1/2: SIF with pancreatin; for SIF t1/2 / SIF No Pancreatin t1/2: pH 6.8; for SIF No Pancreatin t1/2: SIF without pancreatin
[5] = pediatric epilepsy patients receiving CBD orally; cited from earlier work
[6] = 1 μM, protein 1.25 mg/mL, pH 7.4, 37° C
[7] = 1 μM, protein 1.25 mg/mL, pH 7.4, 37° C, NADPH, UDPGA, PAPS
[8] = 1 μM, microsomal protein 1 mg/mL, pH 7.4, 37° C.

Compound	Teorell-Stenhagen Buffer pH 3.5 t1/2 [1]	Teorell-Stenhagen Buffer pH 4.5 t1/2 [1]	Teorell-Stenhagen Buffer pH 5.5 t1/2 [1]	Teorell-Stenhagen Buffer pH 6.5 t1/2 [1]	Teorell-Stenhagen Buffer pH 7.5 t1/2 [1]	Teorell-Stenhagen Buffer pH 8.5 t1/2 [1]	Human S9 EH (hepatic extraction ratio) [2, 6]	Human S9 CLint [2, 7]	Human S9 t1/2 [2, 7]	half-life for de-etherification in S9 fraction ([2]; hepatic S9 fraction)	HLM CLint [3, 8]	HLM EH (hepatic extraction ratio) [3, 8]	HLM t1/2 [3, 8]	stability in liver microsome extract [3]	Plasma stability Human t1/2 (Plasma Stability Assay)	solubility in phosphate buffered saline (Solubility Assay - PBS)	Solubility (μM) in PBS 7.4 (Solubility Assay - PBS)	Solubility (μM) in T-S 7.5 (Solubility Assay - PBS)	SGF t1/2 [4]	SGF No Pepsin t1/2 [4]	further results
C=C(C)[C@@H]1CCC(C)=C[C@H]1c1c(O)cc(CCCCC)cc1OC [CBD Methyl Ether, CBD methyl ether]	>72 h	>72 h	>72 h	>72 h	>72 h	>72 h	21%	1.9 µL/min/mg	4.77 h	about 5 hours	8.7 µL/min/mg	26%	1.33 h	relatively stable	>6.67 h	good solubility	8.4 µM (≈ 2.76 µg/mL)	22 µM (≈ 7.23 µg/mL)	>6.67 h	>6.67 h	half-life of de-etherification in buffers at different pH's ([1]; Teorell-Stenhagen buffer pH 3.5-8.5): greater than 72 hours; SIF t1/2 [4]: >6.67 h; SIF No Pancreatin t1/2 [4]: >6.67 h
C=C(C)[C@@H]1CCC(C)=C[C@H]1c1c(O)cc(CCCCC)cc1O [CBD, cannabidiol, reference compound]																					patients showing somnolence [5]: greater than 44%; CBD cyclized to mixture of Δ8-THC and Δ9-THC ([4]; in about 60 minutes, comparison in the SGF/SIF stability study): greater than 85%
C[C@]12CC[C@H]3[C@@H](CCC4=CC(=O)CC[C@@]43C)[C@@H]1CC[C@@H]2O [Testosterone, testosterone, reference compound]							87%					73%									microsomal CLint at 1 μM ([2]; human, hepatic S9 fraction, 1 μM, protein 1.25 mg/mL, pH 7.4, 37° C, NADPH, UDPGA, PAPS): 47 µL/min/mg; half-life at 1 μM ([2]; human, hepatic S9 fraction, 1 μM, protein 1.25 mg/mL, pH 7.4, 37° C, NADPH, UDPGA, PAPS, read-out: Human S9 t1/2): 0.483 h; half-life ([2]; human, hepatic S9 fraction, read-out: half-life of degradation in S9 fraction): ~0.483 h; microsomal CLint at 1 μM ([3]; human, liver microsomes, 1 μM, microsomal protein 1 mg/mL, pH 7.4, 37° C., read-out: HLM CLint): 69 µL/min/mg; half-life at 1 μM ([3]; human, liver microsomes, 1 μM, microsomal protein 1 mg/mL, pH 7.4, 37° C., read-out: HLM t1/2): 0.167 h
CBD difluoromethyl ether	10 h	14 h	11 h	11 h	11 h	8 h	31%	3.2 µL/min/mg	2.88 h	about 3 hours	9.0 µL/min/mg	26%	1.28 h	relatively stable	>6.67 h	good solubility	7.0 µM	9.7 µM	>6.67 h	>6.67 h	SIF t1/2 [4]: >6.67 h; SIF No Pancreatin t1/2 [4]: >6.67 h
